This is an account of results in patent US10670605B2, “Cysteine reactive probes and uses thereof” (The Scripps Research Institute, priority 2015, dated 2020).

Each structure is given as a SMILES string. Structures can show the parent of a compound that is named as a salt.

Test in all cases: isoTOP-ABPP of compound-treated primary human T cells
Common to all, as to assay type: cell-based

Assay [1] has as its target T1, Cys residues in primary human T cells (Homo sapiens, UniProt O14920).
T1 sequence (O14920 1-756): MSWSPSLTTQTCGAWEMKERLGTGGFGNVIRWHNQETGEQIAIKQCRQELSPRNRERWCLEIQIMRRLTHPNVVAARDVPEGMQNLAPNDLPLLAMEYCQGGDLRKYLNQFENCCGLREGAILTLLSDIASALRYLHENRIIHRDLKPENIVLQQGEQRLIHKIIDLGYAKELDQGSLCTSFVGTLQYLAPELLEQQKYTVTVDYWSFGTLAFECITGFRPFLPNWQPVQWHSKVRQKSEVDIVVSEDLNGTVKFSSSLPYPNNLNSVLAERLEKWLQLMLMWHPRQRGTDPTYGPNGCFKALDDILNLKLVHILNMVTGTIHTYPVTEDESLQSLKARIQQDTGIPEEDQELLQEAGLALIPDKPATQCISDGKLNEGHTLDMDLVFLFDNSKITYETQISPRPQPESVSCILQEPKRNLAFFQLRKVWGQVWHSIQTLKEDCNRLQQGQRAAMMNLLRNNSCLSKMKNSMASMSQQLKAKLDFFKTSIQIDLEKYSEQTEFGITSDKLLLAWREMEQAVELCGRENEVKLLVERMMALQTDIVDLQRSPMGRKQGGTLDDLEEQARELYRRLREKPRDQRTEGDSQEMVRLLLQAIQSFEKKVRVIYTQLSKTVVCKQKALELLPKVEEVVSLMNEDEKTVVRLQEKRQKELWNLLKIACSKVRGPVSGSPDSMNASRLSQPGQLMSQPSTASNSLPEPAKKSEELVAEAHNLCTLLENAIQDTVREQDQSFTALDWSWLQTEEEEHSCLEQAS
As to conditions: IKBKB C464 (O14920).

The target in assay [2] is T2, Cys residues in primary human T cells (Homo sapiens, UniProt O95336).
T2 sequence (O95336 1-258): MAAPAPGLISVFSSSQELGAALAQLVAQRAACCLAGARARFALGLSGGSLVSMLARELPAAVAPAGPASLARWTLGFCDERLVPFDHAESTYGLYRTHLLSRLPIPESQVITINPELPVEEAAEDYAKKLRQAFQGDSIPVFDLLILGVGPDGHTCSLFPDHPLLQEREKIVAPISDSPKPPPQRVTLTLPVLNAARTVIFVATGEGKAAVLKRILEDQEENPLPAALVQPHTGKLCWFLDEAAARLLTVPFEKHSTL
As to conditions: PGLS C32 (095336).

In assay [3] the target is Cys residues in primary human T cells (Homo sapiens, UniProt P21580). The settings on record: TNFAIP3 C54 (P21580).
In assay [4] the target is Cys residues in primary human T cells (Homo sapiens, UniProt P46109). The settings on record: CRKL C249 (P46109).
The target in assay [5] is T3, Cys residues in primary human T cells (Homo sapiens, UniProt Q6IA69).
T3 sequence (Q6IA69 1-706): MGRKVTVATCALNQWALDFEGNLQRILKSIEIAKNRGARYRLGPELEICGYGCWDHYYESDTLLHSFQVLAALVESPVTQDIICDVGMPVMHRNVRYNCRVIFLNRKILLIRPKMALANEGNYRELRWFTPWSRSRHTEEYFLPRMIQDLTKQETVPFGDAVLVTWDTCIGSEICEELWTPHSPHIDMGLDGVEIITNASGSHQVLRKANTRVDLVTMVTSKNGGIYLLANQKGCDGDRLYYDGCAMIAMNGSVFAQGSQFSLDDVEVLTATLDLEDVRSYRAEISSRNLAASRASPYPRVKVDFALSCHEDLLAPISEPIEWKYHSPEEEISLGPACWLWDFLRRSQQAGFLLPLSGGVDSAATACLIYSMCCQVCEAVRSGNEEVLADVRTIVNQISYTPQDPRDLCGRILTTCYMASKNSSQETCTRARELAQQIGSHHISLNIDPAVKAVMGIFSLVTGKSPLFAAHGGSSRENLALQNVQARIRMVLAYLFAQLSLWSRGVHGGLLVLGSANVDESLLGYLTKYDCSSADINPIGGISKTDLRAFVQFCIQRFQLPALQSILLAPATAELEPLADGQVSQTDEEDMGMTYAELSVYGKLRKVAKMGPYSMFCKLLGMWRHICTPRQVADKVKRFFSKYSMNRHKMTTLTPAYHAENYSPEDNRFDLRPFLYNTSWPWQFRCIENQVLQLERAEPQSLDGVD
The settings on record: NADSYN1 C428 (Q6IA69).

In assay [6] the target is T4, Cys residues in primary human T cells (Homo sapiens, UniProt Q9NRW3).
T4 sequence (Q9NRW3 1-190): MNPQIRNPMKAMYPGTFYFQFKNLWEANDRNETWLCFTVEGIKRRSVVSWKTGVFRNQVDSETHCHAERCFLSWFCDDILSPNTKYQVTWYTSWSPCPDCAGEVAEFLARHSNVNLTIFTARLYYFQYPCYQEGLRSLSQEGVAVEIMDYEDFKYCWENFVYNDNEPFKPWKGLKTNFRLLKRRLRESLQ
As to conditions: APOBEC3C C130 (Q9NRW3).

Cys residues in primary human T cells (Homo sapiens, UniProt P46109), sequence (P46109 whole entry): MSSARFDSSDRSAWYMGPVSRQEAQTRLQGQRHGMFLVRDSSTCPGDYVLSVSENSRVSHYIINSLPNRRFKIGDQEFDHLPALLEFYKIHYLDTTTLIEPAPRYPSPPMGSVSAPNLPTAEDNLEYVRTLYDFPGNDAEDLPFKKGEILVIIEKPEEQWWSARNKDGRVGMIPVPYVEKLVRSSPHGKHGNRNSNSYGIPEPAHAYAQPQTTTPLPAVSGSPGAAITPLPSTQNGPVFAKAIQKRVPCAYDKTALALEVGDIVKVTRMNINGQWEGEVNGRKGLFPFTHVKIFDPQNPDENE
Cys residues in primary human T cells (Homo sapiens, UniProt P21580), sequence (P21580 whole entry): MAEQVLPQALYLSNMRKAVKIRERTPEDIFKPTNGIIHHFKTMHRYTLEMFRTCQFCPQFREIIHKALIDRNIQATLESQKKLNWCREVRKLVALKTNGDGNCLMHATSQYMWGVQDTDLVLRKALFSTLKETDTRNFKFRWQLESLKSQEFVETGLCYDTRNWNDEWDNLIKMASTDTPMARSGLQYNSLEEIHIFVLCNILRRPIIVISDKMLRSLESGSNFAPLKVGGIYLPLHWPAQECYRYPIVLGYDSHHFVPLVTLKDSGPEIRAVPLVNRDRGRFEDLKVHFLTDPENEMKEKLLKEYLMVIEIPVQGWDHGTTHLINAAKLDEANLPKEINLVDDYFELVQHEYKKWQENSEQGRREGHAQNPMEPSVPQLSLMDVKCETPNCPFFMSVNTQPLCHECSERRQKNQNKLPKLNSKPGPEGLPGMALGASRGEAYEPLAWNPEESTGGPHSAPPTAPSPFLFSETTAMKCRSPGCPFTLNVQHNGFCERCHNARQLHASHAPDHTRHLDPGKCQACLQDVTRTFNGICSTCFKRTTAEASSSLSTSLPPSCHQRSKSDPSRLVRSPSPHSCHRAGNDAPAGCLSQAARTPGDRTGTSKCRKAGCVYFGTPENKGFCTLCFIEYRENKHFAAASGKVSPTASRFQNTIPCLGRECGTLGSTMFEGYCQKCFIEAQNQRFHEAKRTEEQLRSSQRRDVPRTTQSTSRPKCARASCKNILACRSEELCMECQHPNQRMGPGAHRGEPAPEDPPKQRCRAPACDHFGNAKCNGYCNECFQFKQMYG

With `COC(=O)/C=C/C(=O)OC` [DMF, dimethyl fumarate], the “R value (DMSO/DMF)” value in assay [1] (DMF 10 μM 4h) was found to be 2.59; in assay [1] (DMF 50 μM 1h), 3.96; in assay [1] (DMF 50 μM 2h) it was 10.12; in assay [1] (DMF 50 μM 4h), 20; in assay [2] (DMF 10 μM 4h), 1.9; in assay [2] (DMF 25 μM 4h) it was 5.32. Besides, the “R value (DMSO/DMF)” value in assay [2] (DMF 50 μM 1h) amounted to 3.42; in assay [2] (DMF 50 μM 2h), 9.49; in assay [2] (DMF 50 μM 4h), 11.51; in assay [3] (DMF 10 μM 4h), 1.58; in assay [3] (DMF 50 μM 2h), 5.34; in assay [4] (DMF 10 μM 4h), 1.38. Also, the “R value (DMSO/DMF)” value in assay [4] (DMF 50 μM 1h) is 2.21; in assay [4] (DMF 50 μM 2h) it was 3.21; in assay [4] (DMF 50 μM 4h) it was 4.86; in assay [5] (DMF 10 μM 4h), 1.43; in assay [5] (DMF 50 μM 1h), 1.81; in assay [5] (DMF 50 μM 2h) it was 2.31. In addition, the “R value (DMSO/DMF)” value in assay [5] (DMF 50 μM 4h) was 20; in assay [6] (DMF 10 μM 4h), 1.92; in assay [6] (DMF 50 μM 1h), 8.6; in assay [6] (DMF 50 μM 2h), 20; in assay [6] (DMF 50 μM 4h), 20.
